Laboratory results as given in patent US11667604B2, “Phenyl containing compound, intermediate thereof, preparation method therefor and application thereof” (SHANGHAI MODERN PHARMACEUTICAL ENGINEERING RESEARCH CENTER …, priority 2019, dated 2023).
Structures can show the parent of a compound that is named as a salt.

Experiment: Stability testing of carriers in solid form, residual amount determined by HPLC, and appearance
Type: physicochemical
Settings: for Appearance: storage condition not specified
Experimental: The carrier of embodiment 1 was placed in solid form under normal temperature and normal light, normal temperature and away from light, 4° C. away from light and −18° C. away from light, respectively, and the residual amount of the carrier was measured after being placed for 1d, 3d, 7d, 30d, 60d, 90d and 120d, respectively, and the residual amount was determined by HPLC.
The sodium salt of N-(all-trans-retinoyl)-L-cysteic acid methyl ester was placed in solid form at normal temperature and normal light, at normal temperature and away from light, at 4° C. away from light and at −18° C. away from light respectively (other conditions are the same as those in embodiment 4), and the appearance and residual amount were tested after being placed for 1d, 3d, 7d and 30d, respectively, wherein the residual amount was determined by HPLC.

## COC(=O)[C@H](CS(=O)(=O)O)NC(=O)/C=C(C)/C=C/C=C(C)/C=C/C1=C(C)CCCC1(C)C [sodium salt of N-(all-trans-retinoyl)-L-cysteic acid methyl ester]
0 d
  Appearance: Yellow powder
4° C. away from light, 0 d
  residual amount: 99.54%
4° C. away from light, 3 d
  residual amount: 93.76%
4° C. away from light, 7 d
  residual amount: 89.09%
4° C. away from light, 30 d
  residual amount: 79.69%
3 d
  Appearance: Orange
7 d
  Appearance: Brown viscous
30 d
  Appearance: Dark brown viscous
Normal temperature and away from light, 0 d
  residual amount: 99.54%
Normal temperature and away from light, 3 d
  residual amount: 88.91%
Normal temperature and away from light, 7 d
  residual amount: 78.62%
Normal temperature and normal light, 0 d
  residual amount: 99.54%
Normal temperature and normal light, 3 d
  residual amount: 83.71%
Normal temperature and normal light, 7 d
  residual amount: 64.32%
−18° C. away from light, 0 d
  residual amount: 99.54%
−18° C. away from light, 3 d
  residual amount: 96.16%
−18° C. away from light, 7 d
  residual amount: 94.17%
−18° C. away from light, 30 d
  residual amount: 89.98%
